# Assay results from patent US7402696B2, “Benzene compounds” (Ajinomoto Co., Inc., priority 2004, dated 2008).
# Molecular target: T1, ACC (acetyl CoA carboxylase) purified from liver of male SD rat (Rattus norvegicus, UniProt P11497)
# T1 construct: applied to a monomeric avidin sepharose column, and washed with buffer B. The ACC was eluted with buffer B containing 2 mM d-biotin; from tissue; host or cells: liver of male SD rat
# Test: Measurement of ACC inhibition activity ([14C]-NaHCO3 incorporation)
# Type: biochemical
# Conditions: ACC inhibition activity rate at 1 μM; Table 2-III, Mode 3 acetylene/oxadiazole/thiazole compounds (numbers = x-III); read-out: ACC Inhibition (%)
# Procedure: A male SD rat was deprived of food for two days and then fed a high-sucrose diet (component) for two days. While anesthetized with ether, the descending vena cava was cut upon, the animal was bled, and the liver was rapidly recovered. In an ice-cooled buffer solution A (225 mM mannitol, 75 mM sucrose, 10 mM Tris-HCl (pH 7.5), 0.05 mM EDTA, 5 mM potassium citrate, 2.5 mM MgCl2, 10 mg/L pepstatin A, 10 mg/L leupeptin, 1 mM PMSF), the liver was homogenized with a polytone homogenizer. A quantity of buffer A nine times the weight of the liver was added, the mixture was centrifuged for 10 minutes at 1,000 g, the supernatant was recovered, and the supernatant was centrifuged for another 10 minutes at 17,000 g.
# Ammonium sulfate was added to 35 percent saturation to the obtained supernatant. The mixture was stirred for 45 minutes and then centrifuged for 10 minutes at 17,000 g. Buffer solution B (100 mM Tris-HCl (pH 7.5), 500 mM NaCl, 1 mM EDTA, 0.1 mM DTT, 10 percent glycerol, 10 mg/L pepstatin A, 10 mg/L leupeptin, 0.5 mM PMSF) was added to the obtained precipitate and dissolved. The solution was then centrifuged for 20 minutes at 40,000 g. The supernatant was dialyzed overnight against buffer C (100 mM Tris-HCl (pH 7.5), 500 mM NaCl, 1 mM EDTA, 0.1 mM DTT, 5 percent glycerol).
# The dialyzed supernatant was passed through a […], applied to a monomeric avidin sepharose column, and washed with buffer B. The ACC was eluted with buffer B containing 2 mM d-biotin.
# (2 Measurement of ACC Inhibition Activity)
# The compounds synthesized in the above-described embodiments were dissolved in DMSO and charged to glass vials. 250 μL of ACC-containing reaction solution (40 mM Tris-HCl (pH 7.5), 40 mM MgCl2, 40 mM sodium citrate, and 2 mM DTT) was added. The mixture was heated for 30 minutes at 37° C. in a thermostatic chamber and then cooled with ice. To reaction solution 1 was added 250 μL of reaction solution 2 containing [14C]—NaHCO3 (40 mM Tris-HCl (pH 7.5), 2 mM DTT, 8 mM ATP, 0.5 mM acetyl CoA) and the mixture was heated for 10 minutes at 37° C. 100 μL of 1N HCl was added to stop the reaction. Water in the reaction solution was removed with a centrifugal evaporator, a scintillator was added, the solid component was dissolved, and the 14C radioactivity was measured with a liquid scintillation counter. The ACC inhibition activity of each compound was calculated from the following equation and converted to the ACC inhibition activity rate (%) at 1 μM.
# ACC inhibition rate (%)=(1−(a−c)/(b−c))×100 a. Radioactivity when test drug added b: Radioactivity when test drug not added c: Blank* *Reaction solution 1 to which 100 μL of 1N HCl was added before mixing reaction solution 1 and reaction solution 2
row,Structure (SMILES),inhibition at 1 µM [%]
1,O=C1c2ccccc2C(=O)N1c1cccc(C#Cc2cccc(C(F)(F)F)c2)c1 [compound 18],60
2,O=C(O)c1cccc(-c2nc(-c3ccc(C#Cc4cccc(C(F)(F)F)c4)cc3)no2)c1 [compound 27],56
3,O=C(O)c1ccc(-c2nc(-c3ccc(C#Cc4cccc(C(F)(F)F)c4)cc3)no2)cc1 [compound 28],58
4,O=C(O)c1ccccc1-c1csc(-c2ccc(C#Cc3cccc(C(F)(F)F)c3)cc2)n1 [compound 35],50
5,O=C(O)c1ccc(-c2csc(-c3ccc(C#Cc4cccc(C(F)(F)F)c4)cc3)n2)cc1 [compound 36],54
6,O=C(O)C1C=CC=CC1c1nc(-c2ccc(-c3csc(-c4ccc(C(F)(F)F)cc4)n3)cc2)no1 (stereo not shown) [compound 49],62
7,O=C(O)c1ccc(-c2nc(-c3ccc(-c4csc(-c5ccc(C(F)(F)F)cc5)n4)cc3)no2)cc1 [compound 51],53

# Second part, the compound after the results:
row,inhibition at 1 µM [%],Structure (SMILES)
1,51,O=C(O)c1ccc(C(=O)Nc2ccc(C#Cc3cccc(C(F)(F)F)c3)cc2)c(C(=O)O)c1 [compound 13]
2,73,O=S(=O)(Nc1ccc(-c2csc(-c3ccc(C(F)(F)F)cc3)n2)cc1)c1cccc(S(=O)(=O)Nc2ccc(-c3csc(-c4ccc(C(F)(F)F)cc4)n3)cc2)c1 [compound 55]

# Same assay, conditions: ACC inhibition activity rate at 1 μM; Table 3-I, Mode 1 quinoline compounds (numbers = x-I); read-out: ACC Inhibition (%)
row,inhibition at 1 µM [%],Structure (SMILES)
1,48,CCCCS(=O)(=O)NC(=O)c1ccccc1NC(=O)c1ccc2nc(-c3cccc(OC(F)(F)F)c3)ccc2c1 [compound 13]
2,62,CC(C)c1ccc(S(=O)(=O)NC(=O)CC(NC(=O)c2ccc3nc(-c4cc(C(F)(F)F)cc(C(F)(F)F)c4)ccc3c2)c2ccccc2)cc1 (stereo not shown) [compound 49]
3,87,CC(C)c1ccc(S(=O)(=O)NC(=O)C[C@H](NC(=O)c2ccc3nc(-c4cc(C(F)(F)F)cc(C(F)(F)F)c4)ccc3c2)C2CCCCC2)cc1 [compound 50]
4,45,CCCCS(=O)(=O)NC(=O)CC1(NC(=O)c2ccc3nc(-c4cc(C(F)(F)F)cc(C(F)(F)F)c4)ccc3c2)CCCCC1 [compound 54]
5,70,CCCCS(=O)(=O)NC(=O)C1CCCCCC[C@@H]1NC(=O)c1ccc2nc(-c3cc(C(F)(F)F)cc(C(F)(F)F)c3)ccc2c1 (stereo partly shown) [compound 55]
6,47,CCCCS(=O)(=O)NC(=O)CC(C)(NC(=O)c1ccc2nc(-c3cc(C(F)(F)F)cc(C(F)(F)F)c3)ccc2c1)c1ccccc1 (stereo not shown) [compound 56]
7,59,CCCCS(=O)(=O)NC(=O)C1CCc2ccccc2[C@@H]1NC(=O)c1ccc2nc(-c3cc(C(F)(F)F)cc(C(F)(F)F)c3)ccc2c1 (stereo partly shown) [compound 57]
8,46,CCCCS(=O)(=O)NC(=O)[C@@H]1C[C@@H]2C[C@@H](C2(C)C)[C@]1(C)NC(=O)c1ccc2nc(-c3cc(C(F)(F)F)cc(C(F)(F)F)c3)ccc2c1 [compound 58]
9,74,CCCCS(=O)(=O)NC(=O)[C@@H]1C[C@H]2C[C@H](C2(C)C)[C@@]1(C)NC(=O)c1ccc2nc(-c3cc(C(F)(F)F)cc(C(F)(F)F)c3)ccc2c1 [compound 59]

# Same assay, conditions: ACC inhibition activity rate at 1 μM; Table 4-IV, Mode 4 benzenediamine compounds (numbers = x-IV); read-out: ACC Inhibition (%)
row,Structure (SMILES),inhibition at 1 µM [%]
1,CC(C)CCNc1ccc(-c2noc(-c3cccc(C(=O)NS(=O)(=O)c4ccccc4)c3)n2)cc1[N+](=O)[O-] [compound 36],87
2,CC(C)CCN(C)c1ccc(-c2noc(-c3cccc(C(=O)NS(=O)(=O)c4ccccc4)c3)n2)cc1[N+](=O)[O-] [compound 37],86
3,CC(C)CCN(C)c1ccc(-c2noc(-c3cccc(C(=O)NS(=O)(=O)c4ccccc4)c3)n2)cc1NC(=O)C1CCCCC1 [compound 41],85
4,CC(C)CCN(C)c1ccc(-c2noc(-c3cccc(C(=O)NS(=O)(=O)c4ccccc4)c3)n2)cc1NCc1ccccc1 [compound 45],100
5,CC(C)CCN(C)c1ccc(-c2noc(-c3cccc(C(=O)NS(=O)(=O)c4ccccc4)c3)n2)cc1NCC1CCCCC1 [compound 47],100
6,CC(C)CCN(C)c1ccc(-c2noc(-c3cccc(C(=O)NS(=O)(=O)c4ccccc4)c3)n2)cc1NC(C)C [compound 48],87
7,CC(C)CCN(C)c1ccc(-c2nc(-c3cccc(C(=O)NS(=O)(=O)c4ccccc4)c3)no2)cc1[N+](=O)[O-] [compound 51],76
8,O=C(NS(=O)(=O)c1ccccc1)c1cccc(-c2noc(-c3ccc(NC4CC4)c([N+](=O)[O-])c3)n2)c1 [compound 52],59
9,CC(C)CCN(C)c1ccc(C(=O)NC(CC(=O)NS(=O)(=O)c2ccccc2)C2CCCCC2)cc1NCc1ccccc1 (stereo not shown) [compound 54],87
10,CC(C)CCN(C)c1ccc(C(=O)NC(CC(=O)NS(=O)(=O)c2ccccc2)C2CCCCC2)cc1NCC1CCCCC1 (stereo not shown) [compound 55],90
11,CC(C)CCN(C)c1ccc(-c2noc(-c3cccc(C(=O)NS(=O)(=O)c4ccccc4)c3)n2)cc1N(CCCc1ccccc1)CCCc1ccccc1 [compound 56],100
12,CC(C)CCN(C)c1ccc(-c2noc(-c3cccc(C(=O)NS(=O)(=O)c4ccccc4)c3)n2)cc1NCC1=CCCCC1 [compound 57],100

# Next, values leading:
row,inhibition at 1 µM [%],Structure (SMILES)
1,86,CCCCCC(=O)NS(=O)(=O)c1ccccc1NC(=O)c1ccc(Nc2ccc(C(F)(F)F)cc2)c(NC(=O)c2cc(C(F)(F)F)cc(C(F)(F)F)c2)c1 [compound 16]
2,85,CCCCCC(=O)NS(=O)(=O)c1ccccc1NC(=O)c1ccc(NCCC(C)C)c(NC(=O)c2cc(C(F)(F)F)cc(C(F)(F)F)c2)c1 [compound 20]
3,74,CCCCCC(=O)NS(=O)(=O)c1ccccc1NC(=O)c1ccc(Nc2ccccc2)c(NC(=O)c2ccccc2)c1 [compound 23]
4,97,CCCCCC(=O)NS(=O)(=O)c1ccccc1NC(=O)c1ccc(Nc2ccccc2)c(NC(=O)c2ccc(C(F)(F)F)cc2)c1 [compound 25]
5,78,CCCCCC(=O)NS(=O)(=O)c1ccccc1NC(=O)c1ccc(Nc2ccccc2)c(NC(=O)c2cc(C(F)(F)F)cc(C(F)(F)F)c2)c1 [compound 26]
6,91,CCCCCC(=O)NS(=O)(=O)c1ccccc1NC(=O)c1ccc(Nc2ccc(C(F)(F)F)cc2)c(NC(=O)c2cccc(C(F)(F)F)c2)c1 [compound 27]
7,92,CCCCCC(=O)NS(=O)(=O)c1ccccc1NC(=O)c1ccc(Nc2ccc(C(F)(F)F)cc2)c(NC(=O)c2ccc(C(F)(F)F)cc2)c1 [compound 28]
8,72,CCCCCC(=O)NS(=O)(=O)c1ccccc1NC(=O)c1ccc(Nc2ccc(C(F)(F)F)cc2)c(NC(=O)C2CCCCC2)c1 [compound 31]
9,61,CCCCCC(=O)NS(=O)(=O)c1ccccc1NC(=O)c1ccc(Nc2ccc(C(F)(F)F)cc2)c(NC(=O)c2ccncc2)c1 [compound 33]
10,67,CCCCCC(=O)NS(=O)(=O)c1ccccc1NC(=O)c1ccc(Nc2ccc(C(F)(F)F)cc2)c(NC(=O)c2cccs2)c1 [compound 34]
11,91,CCCCCC(=O)NS(=O)(=O)c1ccccc1NC(=O)c1ccc(Nc2ccc(C(F)(F)F)cc2)c(NC(=O)OCc2ccccc2)c1 [compound 35]
12,99,CC(C)CCN(C)c1ccc(-c2noc(-c3cccc(C(=O)NS(=O)(=O)c4ccccc4)c3)n2)cc1NC(=O)c1cccc(C(F)(F)F)c1 [compound 39]
13,87,CC(C)CCN(C)c1ccc(-c2noc(-c3cccc(C(=O)NS(=O)(=O)c4ccccc4)c3)n2)cc1NC(=O)c1ccccc1 [compound 40]
14,76,CCC(CC)C(=O)Nc1cc(-c2noc(-c3cccc(C(=O)NS(=O)(=O)c4ccccc4)c3)n2)ccc1N(C)CCC(C)C [compound 42]
15,83,CC(C)CCN(C)c1ccc(-c2noc(-c3cccc(C(=O)NS(=O)(=O)c4ccccc4)c3)n2)cc1NC(=O)c1cccs1 [compound 43]
16,100,CC(C)CCN(C)c1ccc(-c2noc(-c3cccc(C(=O)NS(=O)(=O)c4ccccc4)c3)n2)cc1NC(=O)OCc1ccccc1 [compound 44]
